Usually IC50 stands for the midpoint of a concentration-inhibition curve. The Cmax is the peak of the concentration-time curve. As a reminder, the Tmax is the time at which the peak concentration occurs. One may read the half-life as the time needed for the level to fall by half in the phase considered. By bioavailability is commonly meant the share of a dose that reaches the circulation, judged against a reference dose that is usually intravenous.

Where “and” joins values, the source holds several entries; their conditions need not be identical. Identical values can stand only once.

Series [1] in a line: cytotoxicity assay (CCK-8 cell viability). The series is classed as cell-based, canine. As to conditions: dog, MDCK cells, pH 7.4, MDCK cells, 4 h treatment, read-out: IC50 (cytotoxicity, Cur-equivalent). The protocol:
(§1) Madin-Darby Canine Kidney (MDCK) cells were seeded in 96-well plates (1 × 10^5 cells/well) and cultured for 24 h at 37 °C in complete DMEM (10% FBS, 1% penicillin–streptomycin) under 5% CO2. Cells were treated for 4 h with 100 µL of complete DMEM media (pH 7.4) containing crystalline Cur, amorphous Cur, binary Cur/P188 ASD (1:8, w/w), or ternary Cur/P188/TW80 or Cur/P188/SLS ASDs (1:8:1, w/w/w), at Cur-equivalent concentrations of 0 (vehicle), 2, 10, 25, 50, 100, and 200 μg/mL. After treatment, cells were washed three times with PBS (pH 7.4). Cell viability was assessed using a CCK-8 assay: 100 µL of serum-free DMEM and 10 µL of CCK-8 reagent were added to each well, followed by incubation for 2 h. Absorbance was measured at 450 nm using a Multiskan GO microplate reader (Thermo Fisher Scientific, Vantaa, Finland).
(§2) Cell viability was calculated according to the following equation:Viability (%) = [(As − Aᵦ)/(Ac − Aᵦ)] × 100% where
(§3) • As is the absorbance of experimental wells (cells + treatment + CCK-8); • Ac is the absorbance of control wells (cells + medium + CCK-8, no drug); • Aᵦ is the absorbance of blank wells (medium + CCK-8, no cells, no drug).
(§4) All experiments were performed in quintuplicate (n = 5).

The subject of a further series is MDCK cells. Kind of series: cytotoxicity assay (CCK-8 cell viability). It is filed as cell-based, canine. Conditions: 4 h treatment. The procedure:
as §1, §2, §3, §4

A short description of series [2]: in vivo pharmacokinetic study in rats. Details: species or system Sprague-Dawley (SD) rats. As to conditions: rat; for plasma concentration of Cur, individual animals: Rat1-Rat5. The protocol: Male Sprague-Dawley (SD) rats (200 ± 20 g) were supplied by SPF Biotechnology Co., Ltd. (Beijing, China) and housed under standard laboratory conditions throughout the study. All animals were housed in a controlled environment (22 ± 2 °C, 55 ± 10% humidity) under a 12/12 h light/dark cycle, with free access to a standard laboratory rodent diet and water. A 12 h fasting period was implemented prior to the experiment, with water permitted ad libitum. All animal procedures were performed in strict accordance with protocols approved by the Biological and Medical Ethics Committee of Minzu University of China.
After fasting for 12 h (with free access to water), SD rats (n = 25) were randomly divided into five groups (n = 5 per group). Group 1: crystalline Cur (i.v., dissolved in saline with 5% DMSO). Group 2: crystalline Cur (p.o., suspended in 0.5% CMC-Na). Group 3: Cur/P188 ASD (1:8, w/w; p.o.). Group 4: Cur/P188/TW80 ASD (1:8:1, w/w/w; p.o.). Group 5: Cur/P188/SLS ASD (1:8:1, w/w/w; p.o.). Group 1 received the formulation via tail vein injection, while Groups 2–5 were suspended in water (pH 7.0) and administered orally by gavage at a Cur-equivalent dose of 40 mg/kg. Blood samples (0.2 mL) were collected from each rat at 4, 7, 10, 20, and 30 min, and 1, 2, 4, and 24 h post-dosing. Plasma was separated by centrifugation (5000 rpm, 5 min, 4 °C) and stored at −80 °C until analysis.
Cur was extracted from 50 μL of plasma using 600 μL of ethyl acetate and quantified by LC-MS/MS, with diclofenac sodium (20 μL, 200 ng/mL) serving as the internal standard. Blank plasma was obtained from a separate control group (n = 5) that received water only. Analysis of these blank samples confirmed the absence of significant matrix interference, thereby validating the analytical method.
Cur quantification in cellular and rat plasma samples was carried out using a SCIEX QTRAP® 5500 LC-MS/MS system coupled with a SCIEX ExionLC^TM AC system (AB SCIEX, Framingham, MA, USA).
Separation was achieved on an Acquity UPLC® BEH C18 column (100 × 2.1 mm, 1.7 μm; Waters) maintained at 40 °C. The mobile phase consisted of (A) 0.1% formic acid in water and (B) acetonitrile (ACN), delivered at a flow rate of 0.14 mL/min with the following gradient program: 10% B (0–1.0 min), increased to 95% B (1.0–9.0 min), and returned to 10% B (9.0–12.0 min). The injection volume was 5 μL. The retention times were approximately 4.85 min for Cur and 6.70 min for diclofenac sodium, used as the internal standard (IS).
Mass spectrometric detection was performed using an IonDrive^TM Turbo V ion (SCIEX, Framingham, MA, USA) source operating in negative electrospray ionization (ESI) mode. Quantification was conducted via multiple reaction monitoring (MRM) at m/z 367.1→133.9 for Cur, and m/z 294.1→250.0 for diclofenac sodium (IS). The assay was linear over the concentration range of 2-500 ng/mL (R^2 > 0.999). All data were acquired in triplicate (n = 3) and processed using MultiQuant software version 3.0.2 (AB SCIEX).
Pharmacokinetic parameters were calculated using non-compartmental analysis with DAS 2.0 software (Boying Corporation, Beijing, China). Data analysis was performed using GraphPad Prism 10.1.2 software. The result is expressed as mean ± standard deviation (SD). For pairwise comparisons between groups, t-tests were conducted. For multiple group comparisons, one-way analysis of variance (ANOVA) was performed, followed by Tukey’s post hoc test for multiple comparisons. Prior to ANOVA, the assumptions of normality and homogeneity of variances were verified using the Shapiro–Wilk test and Bartlett’s test, respectively. p < 0.05 indicates statistically significant differences.

Where [3] appears, read: male, Sprague-Dawley, plasma, oral (o.p.), 40 mg/kg Cur-equivalent.

On to `COc1cc(/C=C/C(=O)CC(=O)/C=C/c2ccc(O)c(OC)c2)ccc1O` [Crystalline Cur, Curcumin], for which, in series [1], the IC50 at 4 h amounted to 82.2 µg/mL. Besides, the “concentrations with negligible toxicity” value in the series on MDCK cells was at most 25000 ng/mL. Moreover, the Cmax in series [2] (setting [3]) is 2.4 ± 0.4 ng/mL. Besides, the Tmax in series [2] (setting [3]) turned out to be 0.2 h. The half-life in series [2] (setting [3]) was 1.8 ± 0.4 h. Besides, the MRT last in series [2] (male, Sprague-Dawley, plasma, oral (o.p.), 40 mg/kg Cur-equivalent, read-out: MRT(0–24)) was 6.3 ± 2 h. Moreover, in series [2] (male, Sprague-Dawley, plasma, oral, 40 mg/kg, oral 40 mg/kg relative to intravenous administration, read-out: F (absolute oral bioavailability)), the bioavailability was around 1%. The concentration at 0.12 h in series [2] (male, Sprague-Dawley, plasma, po, 40 mg/kg, oral (o.p.), 40 mg/kg, 0.12 h, Rat1-Rat5, read-out: plasma concentration of Cur, individual animals) was 2.6 ng/mL. Besides, the concentration at 0.17 h in series [2] (male, Sprague-Dawley, plasma, po, 40 mg/kg, oral (o.p.), 40 mg/kg, 0.17 h, Rat1-Rat5, read-out: plasma concentration of Cur, individual animals) came to 2.8 ng/mL. Moreover, the “F (absolute oral bioavailability)” value in series [2] (oral 40 mg/kg relative to intravenous administration, 40 mg/kg) stood at 0.97%. In addition, the “plasma concentration of Cur, individual animals” value in series [2] (oral (o.p.), 40 mg/kg, 0.07 h) is 1.7 ng/mL and 1.4 ng/mL (2×) and 0.7 ng/mL and 1.1 ng/mL; in series [2] (oral (o.p.), 40 mg/kg, 0.12 h), 2.6 ng/mL and 2.1 ng/mL and 1.6 ng/mL and 1.9 ng/mL; in series [2] (oral (o.p.), 40 mg/kg, 0.17 h) it was 2.8 ng/mL and 2.5 ng/mL and 2.1 ng/mL and 2.0 ng/mL; in series [2] (oral (o.p.), 40 mg/kg, 0.33 h), 2.5 ng/mL and 2.1 ng/mL and 2.0 ng/mL and 1.5 ng/mL and 1.0 ng/mL; in series [2] (oral (o.p.), 40 mg/kg, 0.5 h), 2.2 ng/mL and 1.4 ng/mL and 1.2 ng/mL (2×) and 0.542 ng/mL; in series [2] (oral (o.p.), 40 mg/kg, 1 h), 1.4 ng/mL and 0.7 ng/mL and 0.845 ng/mL and 0.9 ng/mL and 0.369 ng/mL. For the same compound, the “plasma concentration of Cur, individual animals” value in series [2] (oral (o.p.), 40 mg/kg, 2 h) was 0.64 ng/mL and 0.9 ng/mL and 0.5 ng/mL and 0.7 ng/mL and 0.2 ng/mL; in series [2] (oral (o.p.), 40 mg/kg, 4 h), 0.256 ng/mL and 0.433 ng/mL and 0.228 ng/mL and 0.35 ng/mL and 0.125 ng/mL; in series [2] (oral (o.p.), 40 mg/kg, 24 h) it was 0.08 ng/mL and 0.056 ng/mL and 0.2 ng/mL and 0.112 ng/mL and 0.1 ng/mL.

The values above are taken from publication PMC12736958 (Pharmaceutics, 2025).
